# Experimental data published in patent US10039747B2, “Tetrahydrocyclopentapyrrole derivatives and a method for preparing the same” (Daewoong Pharmaceutical Co., Ltd., priority 2013, dated 2018).
# Molecular target: T1, H+/K+-ATPase (Sus scrofa, UniProt P19156)
# T1 construct: reaction buffer solution (60 mmol/l Tris-HCl buffer solution, pH 7.4) containing hog gastric vesicle; from tissue; host or cells: hog stomach (gastric vesicles, by centrifugation after Rabon et al. 1988)
# Test: Inhibition of proton pump (H+/K+-ATPase) activity in hog gastric vesicles
# Type: biochemical
# Conditions: K+ specific H+/K+-ATPase activity, pH 7.4, 37° C. for 40 minutes, malachite green
# Method in brief: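 Hog gastric vesicles in 60 mmol/l Tris-HCl pH 7.4 with compound, started with ATP, 40 min at 37° C. Pi read by malachite green at 570 nm; K+-specific activity taken as difference between +K+ and −K+ activity. IC50 from % inhibition by 4-parameter logistic fit.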
# T1 sequence (P19156 2-1034 limits assumed): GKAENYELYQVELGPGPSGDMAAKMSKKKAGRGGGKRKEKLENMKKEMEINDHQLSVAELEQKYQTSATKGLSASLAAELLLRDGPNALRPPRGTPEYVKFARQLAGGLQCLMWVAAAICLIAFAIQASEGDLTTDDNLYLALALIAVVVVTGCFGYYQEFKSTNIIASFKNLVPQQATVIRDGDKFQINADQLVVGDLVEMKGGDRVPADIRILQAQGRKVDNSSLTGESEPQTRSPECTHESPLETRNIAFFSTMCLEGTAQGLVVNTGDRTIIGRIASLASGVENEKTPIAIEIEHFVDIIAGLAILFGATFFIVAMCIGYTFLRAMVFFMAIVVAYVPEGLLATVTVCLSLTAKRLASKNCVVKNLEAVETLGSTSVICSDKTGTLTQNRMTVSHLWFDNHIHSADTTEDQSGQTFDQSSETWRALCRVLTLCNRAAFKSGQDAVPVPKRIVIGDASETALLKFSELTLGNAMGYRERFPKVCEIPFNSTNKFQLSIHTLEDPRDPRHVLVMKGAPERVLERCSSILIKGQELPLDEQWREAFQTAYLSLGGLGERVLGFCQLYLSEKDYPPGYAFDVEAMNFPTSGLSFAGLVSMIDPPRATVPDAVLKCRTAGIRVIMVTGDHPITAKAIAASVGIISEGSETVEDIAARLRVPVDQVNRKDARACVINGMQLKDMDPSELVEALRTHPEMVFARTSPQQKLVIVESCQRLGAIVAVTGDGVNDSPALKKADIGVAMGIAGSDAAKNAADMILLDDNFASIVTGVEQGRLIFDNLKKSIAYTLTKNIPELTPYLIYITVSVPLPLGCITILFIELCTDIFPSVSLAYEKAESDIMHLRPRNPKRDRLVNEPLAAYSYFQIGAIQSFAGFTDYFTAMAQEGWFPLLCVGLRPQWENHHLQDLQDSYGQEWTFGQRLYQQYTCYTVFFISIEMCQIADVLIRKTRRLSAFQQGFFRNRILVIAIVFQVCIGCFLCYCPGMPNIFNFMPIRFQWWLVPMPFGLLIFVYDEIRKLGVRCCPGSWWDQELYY
# T1 sequence (P18434 whole entry partner): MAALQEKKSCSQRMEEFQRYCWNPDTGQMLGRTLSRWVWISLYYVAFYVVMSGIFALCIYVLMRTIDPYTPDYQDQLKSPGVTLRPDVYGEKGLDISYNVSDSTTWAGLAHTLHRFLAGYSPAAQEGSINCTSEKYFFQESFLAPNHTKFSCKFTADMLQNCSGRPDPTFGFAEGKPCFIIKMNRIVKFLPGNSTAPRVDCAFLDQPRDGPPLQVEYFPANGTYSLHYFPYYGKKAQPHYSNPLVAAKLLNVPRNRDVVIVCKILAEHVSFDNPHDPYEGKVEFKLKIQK
row,IC50,SMILES
1,0.32 µM,"CNC1CCc2c1cn(S(=O)(=O)c1cccc(Cl)c1)c2-c1ccsc1 (centres unmarked) [Example 33, 2-((3-chlorophenyl)sulfonyl)-N-methyl-1-(thiophen-3-yl)-2,4,5,6-tetrahydrocyclopenta[c]pyrrol-4-amine]"
2,0.67 µM,"CNC1CCc2c1cn(S(=O)(=O)c1cc(Cl)ccc1Cl)c2-c1ccc(F)cc1F (centres unmarked) [Example 71, 2-((2,5-dichlorophenyl)sulfonyl)-1-(2,4-difluorophenyl)-N-methyl-2,4,5,6-tetrahydrocyclopenta[c]pyrrol-4-amine]"
3,0.67 µM,"CNC1CCc2c1cn(S(=O)(=O)c1cc(Cl)ccc1Cl)c2-c1cc(Cl)ccc1Cl (centres unmarked) [Example 73, 1-(2,5-dichlorophenyl)-2-((2,5-dichlorophenyl)sulfonyl)-N-methyl-2,4,5,6-tetrahydrocyclopenta[c]pyrrol-4-amine]"
4,7.24 µM,"CNC1CCc2c1cn(S(=O)(=O)c1cc(C)cnc1Cl)c2-c1ccccc1F (centres unmarked) [Example 100, 2-((2-chloro-5-methylpyridin-3-yl)sulfonyl)-1-(2-fluorophenyl)-N-methyl-2,4,5,6-tetrahydrocyclopenta[c]pyrrol-4-amine]"
5,0.94 µM,"CNC1CCc2c1cn(S(=O)(=O)c1ccc(F)cc1F)c2-c1ccccc1F (centres unmarked) [Example 65, 2-((2,4-difluorophenyl)sulfonyl)-1-(2-fluorophenyl)-N-methyl-2,4,5,6-tetrahydrocyclopenta[c]pyrrol-4-amine]"
6,0.9 µM,"CNC1CCc2c1cn(S(=O)(=O)c1cccc(Cl)c1)c2-c1ccc(Cl)cc1Cl (centres unmarked) [Example 21, 2-((3-chlorophenyl)sulfonyl)-1-(2,4-dichlorophenyl)-N-methyl-2,4,5,6-tetrahydrocyclopenta[c]pyrrol-4-amine]"
7,0.46 µM,"CNC1CCc2c1cn(S(=O)(=O)c1cc(Cl)cc(Cl)c1)c2-c1ccc(C)cc1F (centres unmarked) [Example 78, 2-((3,5-dichlorophenyl)sulfonyl)-1-(2-fluoro-4-methylphenyl)-N-methyl-2,4,5,6-tetrahydrocyclopenta[c]pyrrol-4-amine]"
8,0.55 µM,"CNC1CCc2c1cn(S(=O)(=O)c1ccccc1)c2-c1cc(Cl)ccc1Cl (centres unmarked) [Example 45, 1-(2,5-dichlorophenyl)-N-methyl-2-(phenylsulfonyl)-2,4,5,6-tetrahydrocyclopenta[c]pyrrol-4-amine]"
9,0.5 µM,"CNC1CCc2c1cn(S(=O)(=O)c1ccc(F)cc1Cl)c2-c1ccccc1F (centres unmarked) [Example 66, 2-((2-chloro-4-fluorophenyl)sulfonyl)-1-(2-fluorophenyl)-N-methyl-2,4,5,6-tetrahydrocyclopenta[c]pyrrol-4-amine]"
10,6.78 µM,"CNC1CCc2c1cn(S(=O)(=O)c1ccc(C)nc1Cl)c2-c1ccccc1F (centres unmarked) [Example 99, 2-((2-chloro-6-methylpyridin-3-yl)sulfonyl)-1-(2-fluorophenyl)-N-methyl-2,4,5,6-tetrahydrocyclopenta[c]pyrrol-4-amine]"
11,0.61 µM,"CNC1CCc2c1cn(S(=O)(=O)c1cccc(Cl)c1C)c2-c1ccccc1F (centres unmarked) [Example 63, 2-((3-chloro-2-methylphenyl)sulfonyl)-1-(2-fluorophenyl)-N-methyl-2,4,5,6-tetrahydrocyclopenta[c]pyrrol-4-amine]"
12,1.19 µM,"CNC1CCc2c1cn(S(=O)(=O)c1cccnc1)c2-c1ccccc1Cl (centres unmarked) [Example 89, 1-(2-chlorophenyl)-N-methyl-2-(pyridin-3-ylsulfonyl)-2,4,5,6-tetrahydrocyclopenta[c]pyrrol-4-amine]"
13,0.77 µM,"CNC1CCc2c1cn(S(=O)(=O)c1ccc(F)cc1)c2-c1cc(Cl)ccc1Cl (centres unmarked) [Example 61, 1-(2,5-dichlorophenyl)-2-((4-fluorophenyl)sulfonyl)-N-methyl-2,4,5,6-tetrahydrocyclopenta[c]pyrrol-4-amine]"
14,1.72 µM,"CNC1CCc2c1cn(S(=O)(=O)c1cncc(Cl)c1)c2-c1ccccc1F (centres unmarked) [Example 95, 2-((5-chloropyridin-3-yl)sulfonyl)-1-(2-fluorophenyl)-N-methyl-2,4,5,6-tetrahydrocyclopenta[c]pyrrol-4-amine]"
15,0.47 µM,"CNC1CCc2c1cn(S(=O)(=O)c1cccc(Cl)c1)c2-c1ccc(O)cc1 (centres unmarked) [Example 12, 4-(2-((3-chlorophenyl)sulfonyl)-4-(methylamino)-2,4,5,6-tetrahydrocyclopenta[c]pyrrol-1-yl)phenol]"
16,3.62 µM,"CNC1CCc2c1cn(S(=O)(=O)c1ccc(OC)nc1Cl)c2-c1ccccc1F (centres unmarked) [Example 98, 2-((2-chloro-6-methoxypyridin-3-yl)sulfonyl)-1-(2-fluorophenyl)-N-methyl-2,4,5,6-tetrahydrocyclopenta[c]pyrrol-4-amine]"
17,0.49 µM,"CNC1CCc2c1cn(S(=O)(=O)c1ccc(Cl)c(Cl)c1)c2-c1ccccc1F (centres unmarked) [Example 76, 2-((3,4-dichlorophenyl)sulfonyl)-1-(2-fluorophenyl)-N-methyl-2,4,5,6-tetrahydrocyclopenta[c]pyrrol-4-amine]"
18,0.84 µM,"CNC1CCc2c1cn(S(=O)(=O)c1cccc(Cl)c1)c2-c1cc(C)sc1C (centres unmarked) [Example 35, 2-((3-chlorophenyl)sulfonyl)-1-(2,5-dimethylthiophen-3-yl)-N-methyl-2,4,5,6-tetrahydrocyclopenta[c]pyrrol-4-amine]"
19,5.95 µM,"CNC1CCc2c1cn(S(=O)(=O)c1c(Cl)cc(C(F)(F)F)cc1Cl)c2-c1ccccc1F (centres unmarked) [Example 86, 2-((2,6-dichloro-4-(trifluoromethyl)phenyl)sulfonyl)-1-(2-fluorophenyl)-N-methyl-2,4,5,6-tetrahydrocyclopenta[c]pyrrol-4-amine]"
20,2.54 µM,"CNC1CCc2c1cn(S(=O)(=O)c1cccc(Cl)c1)c2-c1cccc(Cl)n1 (centres unmarked) [Example 36, 2-((3-chlorophenyl)sulfonyl)-1-(6-chloropyridin-2-yl)-N-methyl-2,4,5,6-tetrahydrocyclopenta[c]pyrrol-4-amine]"

# Second part, the compound before the results:
row,SMILES,IC50
1,"CNC1CCc2c1cn(S(=O)(=O)c1cccc(Cl)c1)c2C (centres unmarked) [Example 2, 2-((3-chlorophenyl)sulfonyl)-N,1-dimethyl-2,4,5,6-tetrahydrocyclopenta[c]pyrrol-4-amine]",10 µM
2,"CNC1CCc2c1cn(S(=O)(=O)c1cccc(Cl)c1)c2-c1cccc(C(F)(F)F)c1 (centres unmarked) [Example 10, 2-((3-chlorophenyl)sulfonyl)-N-methyl-1-(3-(trifluoromethyl)phenyl)-2,4,5,6-tetrahydrocyclopenta[c]pyrrol-4-amine]",0.97 µM
3,"CNC1CCc2c1cn(S(=O)(=O)c1cccc(Cl)c1)c2-c1ccc(C#N)cc1 (centres unmarked) [Example 13, 4-(2-((3-chlorophenyl)sulfonyl)-4-(methylamino)-2,4,5,6-tetrahydrocyclopenta[c]pyrrol-1-yl)benzonitrile]",1.8 µM
4,"COc1cccc(S(=O)(=O)n2cc3c(c2-c2ccccc2F)CCCC3N(C)C)c1 (centres unmarked) [Example 140, 1-(2-fluorophenyl)-2-((3-methoxyphenyl)sulfonyl)-N,N-dimethyl-4,5,6,7-tetrahydro-2H-isoindole-4-amine]",7 µM
5,"CN(C)c1cccc(S(=O)(=O)n2cc3c(c2-c2ccccc2F)CCCC3N(C)C)c1 (centres unmarked) [Example 143, 2-((3-(dimethylamino)phenyl)sulfonyl)-1-(2-fluorophenyl)-N,N-dimethyl-4,5,6,7-tetrahydro-2H-isoindole-4-amine]",5 µM
6,"CN(C)C1CCCc2c1cn(S(=O)(=O)c1cccc(C(F)(F)F)c1)c2-c1ccccc1F (centres unmarked) [Example 139, 1-(2-fluorophenyl)-N,N-dimethyl-2-((3-(trifluoromethyl)phenyl)sulfonyl)-4,5,6,7-tetrahydro-2H-isoindole-4-amine]",9.07 µM
7,"CNC1CCc2c1cn(S(=O)(=O)c1cccc(Cl)c1)c2-c1cccnc1 (centres unmarked) [Example 37, 2-((3-chlorophenyl)sulfonyl)-N-methyl-1-(pyridin-3-yl)-2,4,5,6-tetrahydrocyclopenta[c]pyrrol-4-amine]",1.49 µM
8,"CNC1CCc2c1cn(S(=O)(=O)c1cccnc1)c2-c1ccsc1 (centres unmarked) [Example 94, N-methyl-2-(pyridin-3-ylsulfonyl)-1-(thiophen-3-yl)-2,4,5,6-tetrahydrocyclopenta[c]pyrrol-4-amine]",0.47 µM
9,"CC(C)NC1CCc2c1cn(S(=O)(=O)c1cccnc1)c2-c1ccccc1F (centres unmarked) [Example 104, 1-(2-fluorophenyl)-N-isopropyl-2-(pyridin-3-ylsulfonyl)-2,4,5,6-tetrahydrocyclopenta[c]pyrrol-4-amine]",50 µM
10,CNC1CCc2c1cn(S(=O)(=O)c1cccc(Cl)c1)c2-c1ccccc1N1CCOCC1 (centres unmarked) [Example 7],40 µM
11,"CNC1CCc2c1cn(S(=O)(=O)c1cccc(Cl)c1)c2-c1ccc(C(F)(F)F)cc1 (centres unmarked) [Example 16, 2-((3-chlorophenyl)sulfonyl)-N-methyl-1-(4-(trifluoromethyl)phenyl)-2,4,5,6-tetrahydrocyclopenta[c]pyrrol-4-amine]",0.97 µM
12,"CNC1CCCc2c1cn(S(=O)(=O)c1cccc(OC)c1)c2-c1ccccc1F (centres unmarked) [Example 122, 1-(2-fluorophenyl)-2-((3-methoxyphenyl)sulfonyl)-N-methyl-4,5,6,7-tetrahydro-2H-isoindole-4-amine]",1.5 µM
13,"CNC1CCc2c1cn(S(=O)(=O)c1cccnc1)c2-c1ccccc1F (centres unmarked) [Example 88, 1-(2-fluorophenyl)-N-methyl-2-(pyridin-3-ylsulfonyl)-2,4,5,6-tetrahydrocyclopenta[c]pyrrol-4-amine]",0.51 µM
14,"CNC1CCc2c1cn(S(=O)(=O)c1cccc(Cl)c1)c2-c1ccc(C(=O)OC)cc1 (centres unmarked) [Example 15, methyl 4-(2-((3-chlorophenyl)sulfonyl)-4-(methylamino)-2,4,5,6-tetrahydrocyclopenta[c]pyrrol-1-yl)benzoate]",2.9 µM
15,"CN(C)C1CCCc2c1cn(S(=O)(=O)c1cccc(F)c1)c2-c1ccccc1F (centres unmarked) [Example 136, 1-(2-fluorophenyl)-2-((3-fluorophenyl)sulfonyl)-N,N-dimethyl-4,5,6,7-tetrahydro-2H-isoindole-4-amine]",15 µM
